From ChEMBL document CHEMBL1938230, “6-Position optimization of tricyclic 4-quinolone-based inhibitors of glycogen synthase kinase-3β: discovery of nitrile derivatives with picomolar potency” (Bioorg Med Chem Lett, 2012)

Experiments:
Format in all cases: cell-free
[1] = molecular target: 1-phosphatidylinositol 3-phosphate 5-kinase (Homo sapiens) (UniProt Q9Y2I7); test: Inhibition of human PIP5K3 in HL-60 cells lysate assessed as reduction of labeling of acyl-phosphate ATP probe at 100 nM
[2] = molecular target: T1, Interleukin-1 receptor-associated kinase 4 (Homo sapiens) (UniProt Q9NWZ3); test: Inhibition of human IRAK4 in HL-60 cells lysate assessed as reduction of labeling of acyl-phosphate ATP probe at 100 nM
T1 sequence (whole entry): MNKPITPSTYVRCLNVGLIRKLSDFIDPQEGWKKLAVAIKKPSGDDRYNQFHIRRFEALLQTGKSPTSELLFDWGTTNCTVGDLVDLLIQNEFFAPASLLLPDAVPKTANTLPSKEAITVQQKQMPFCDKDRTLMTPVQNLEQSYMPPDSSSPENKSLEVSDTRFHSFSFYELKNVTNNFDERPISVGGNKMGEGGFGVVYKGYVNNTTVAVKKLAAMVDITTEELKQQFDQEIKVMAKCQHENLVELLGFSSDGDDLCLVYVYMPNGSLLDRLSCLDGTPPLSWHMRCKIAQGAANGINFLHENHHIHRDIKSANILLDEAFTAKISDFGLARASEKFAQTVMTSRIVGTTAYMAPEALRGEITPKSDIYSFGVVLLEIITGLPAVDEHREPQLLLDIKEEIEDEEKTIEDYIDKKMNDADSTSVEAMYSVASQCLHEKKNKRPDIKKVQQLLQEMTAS

[3] = molecular target: Tyrosine-protein kinase Fer (Homo sapiens) (UniProt P16591); test: Inhibition of human FER in HL-60 cells lysate assessed as reduction of labeling of acyl-phosphate ATP probe at 100 nM
Chain of Tyrosine-protein kinase Fer (Homo sapiens) (P16591 whole entry, looked up): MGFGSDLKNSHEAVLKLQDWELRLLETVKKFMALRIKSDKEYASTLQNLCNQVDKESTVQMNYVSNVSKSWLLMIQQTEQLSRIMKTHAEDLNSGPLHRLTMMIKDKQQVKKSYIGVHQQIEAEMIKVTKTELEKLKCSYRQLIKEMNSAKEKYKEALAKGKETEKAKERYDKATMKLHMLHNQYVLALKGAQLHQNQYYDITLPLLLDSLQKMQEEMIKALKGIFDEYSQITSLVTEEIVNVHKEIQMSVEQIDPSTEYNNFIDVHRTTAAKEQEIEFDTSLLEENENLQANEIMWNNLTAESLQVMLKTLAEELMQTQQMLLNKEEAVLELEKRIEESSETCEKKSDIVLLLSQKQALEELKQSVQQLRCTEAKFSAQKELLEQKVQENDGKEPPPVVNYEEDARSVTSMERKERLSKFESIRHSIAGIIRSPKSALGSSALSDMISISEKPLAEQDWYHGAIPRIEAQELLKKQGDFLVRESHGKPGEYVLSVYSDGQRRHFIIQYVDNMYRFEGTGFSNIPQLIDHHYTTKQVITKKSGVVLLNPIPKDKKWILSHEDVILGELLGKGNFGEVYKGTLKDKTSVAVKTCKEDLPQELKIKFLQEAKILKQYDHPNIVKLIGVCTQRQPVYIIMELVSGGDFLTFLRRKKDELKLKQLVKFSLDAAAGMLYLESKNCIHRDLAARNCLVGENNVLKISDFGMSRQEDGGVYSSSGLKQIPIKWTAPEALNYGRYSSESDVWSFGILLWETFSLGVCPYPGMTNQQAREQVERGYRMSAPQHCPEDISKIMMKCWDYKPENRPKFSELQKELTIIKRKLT

[4] = molecular target: T2, Serine/threonine-protein kinase 4 (Homo sapiens) (UniProt Q13043); test: Inhibition of human MST1 in HL-60 cells lysate assessed as reduction of labeling of acyl-phosphate ATP probe at 100 nM
T2 sequence (whole entry): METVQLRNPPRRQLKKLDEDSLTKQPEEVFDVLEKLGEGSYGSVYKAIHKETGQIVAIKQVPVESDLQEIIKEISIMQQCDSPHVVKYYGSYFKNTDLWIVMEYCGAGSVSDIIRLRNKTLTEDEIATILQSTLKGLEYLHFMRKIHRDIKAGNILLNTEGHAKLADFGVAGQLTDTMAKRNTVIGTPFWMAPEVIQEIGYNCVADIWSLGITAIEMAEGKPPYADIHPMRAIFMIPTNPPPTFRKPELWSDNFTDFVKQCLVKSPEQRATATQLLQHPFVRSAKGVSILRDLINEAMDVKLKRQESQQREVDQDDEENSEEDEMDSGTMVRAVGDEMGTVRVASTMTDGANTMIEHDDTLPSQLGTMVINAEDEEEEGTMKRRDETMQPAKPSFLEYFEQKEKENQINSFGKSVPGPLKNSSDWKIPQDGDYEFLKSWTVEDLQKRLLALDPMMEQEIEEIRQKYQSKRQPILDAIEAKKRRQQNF

[5] = molecular target: T3, Serine/threonine-protein kinase tousled-like 1 (Homo sapiens) (UniProt Q9UKI8); test: Inhibition of human TLK1 in HL-60 cells lysate assessed as reduction of labeling of acyl-phosphate ATP probe at 100 nM
T3 sequence (whole entry): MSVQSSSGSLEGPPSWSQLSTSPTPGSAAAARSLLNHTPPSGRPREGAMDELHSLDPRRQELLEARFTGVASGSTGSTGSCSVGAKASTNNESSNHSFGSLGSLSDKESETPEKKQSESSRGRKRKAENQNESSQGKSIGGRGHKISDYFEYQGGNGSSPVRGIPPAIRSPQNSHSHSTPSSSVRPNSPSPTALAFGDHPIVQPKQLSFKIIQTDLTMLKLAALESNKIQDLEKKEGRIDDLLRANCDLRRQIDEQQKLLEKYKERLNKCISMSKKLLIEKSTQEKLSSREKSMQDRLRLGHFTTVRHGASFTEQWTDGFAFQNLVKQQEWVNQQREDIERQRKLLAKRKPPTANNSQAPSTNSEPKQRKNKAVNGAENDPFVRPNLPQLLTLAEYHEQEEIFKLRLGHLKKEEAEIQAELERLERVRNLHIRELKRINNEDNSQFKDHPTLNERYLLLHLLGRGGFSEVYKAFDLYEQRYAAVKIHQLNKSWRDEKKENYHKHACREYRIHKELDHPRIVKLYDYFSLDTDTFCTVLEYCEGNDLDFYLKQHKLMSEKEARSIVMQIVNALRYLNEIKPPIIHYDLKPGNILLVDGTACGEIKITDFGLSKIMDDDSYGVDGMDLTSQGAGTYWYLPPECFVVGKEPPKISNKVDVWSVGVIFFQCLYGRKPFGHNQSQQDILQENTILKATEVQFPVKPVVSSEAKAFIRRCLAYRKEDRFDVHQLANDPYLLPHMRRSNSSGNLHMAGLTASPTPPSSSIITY

[6] = molecular target: Serine/threonine-protein kinase mTOR (Homo sapiens) (UniProt P42345); test: Inhibition of human mTOR in HL-60 cells lysate assessed as reduction of labeling of acyl-phosphate ATP probe at 100 nM
[7] = molecular target: Serine/threonine-protein kinase PLK1 (Homo sapiens) (UniProt P53350); test: Inhibition of human PLK1 in HL-60 cells lysate assessed as reduction of labeling of acyl-phosphate ATP probe at 100 nM
Chain of Serine/threonine-protein kinase PLK1 (Homo sapiens) (P53350 whole entry): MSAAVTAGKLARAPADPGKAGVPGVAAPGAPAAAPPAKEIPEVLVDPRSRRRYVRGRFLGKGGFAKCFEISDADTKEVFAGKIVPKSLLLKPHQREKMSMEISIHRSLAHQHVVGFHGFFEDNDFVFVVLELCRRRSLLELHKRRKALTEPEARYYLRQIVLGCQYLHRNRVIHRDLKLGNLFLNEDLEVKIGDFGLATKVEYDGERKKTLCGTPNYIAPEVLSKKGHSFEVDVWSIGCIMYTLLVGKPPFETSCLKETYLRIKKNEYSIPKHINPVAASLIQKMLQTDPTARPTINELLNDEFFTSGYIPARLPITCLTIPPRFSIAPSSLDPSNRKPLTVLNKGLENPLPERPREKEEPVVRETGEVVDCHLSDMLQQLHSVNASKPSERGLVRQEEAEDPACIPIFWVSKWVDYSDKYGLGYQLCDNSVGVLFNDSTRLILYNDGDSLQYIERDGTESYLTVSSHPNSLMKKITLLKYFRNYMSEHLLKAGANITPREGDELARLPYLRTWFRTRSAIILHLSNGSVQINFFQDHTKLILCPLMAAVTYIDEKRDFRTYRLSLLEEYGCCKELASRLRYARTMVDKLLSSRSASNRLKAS

[8] = molecular target: Serine/threonine-protein kinase 10 (Homo sapiens) (UniProt O94804); test: Inhibition of human LOK in HL-60 cells lysate assessed as reduction of labeling of acyl-phosphate ATP probe at 100 nM
Chain of Serine/threonine-protein kinase 10 (Homo sapiens) (O94804 whole entry, looked up): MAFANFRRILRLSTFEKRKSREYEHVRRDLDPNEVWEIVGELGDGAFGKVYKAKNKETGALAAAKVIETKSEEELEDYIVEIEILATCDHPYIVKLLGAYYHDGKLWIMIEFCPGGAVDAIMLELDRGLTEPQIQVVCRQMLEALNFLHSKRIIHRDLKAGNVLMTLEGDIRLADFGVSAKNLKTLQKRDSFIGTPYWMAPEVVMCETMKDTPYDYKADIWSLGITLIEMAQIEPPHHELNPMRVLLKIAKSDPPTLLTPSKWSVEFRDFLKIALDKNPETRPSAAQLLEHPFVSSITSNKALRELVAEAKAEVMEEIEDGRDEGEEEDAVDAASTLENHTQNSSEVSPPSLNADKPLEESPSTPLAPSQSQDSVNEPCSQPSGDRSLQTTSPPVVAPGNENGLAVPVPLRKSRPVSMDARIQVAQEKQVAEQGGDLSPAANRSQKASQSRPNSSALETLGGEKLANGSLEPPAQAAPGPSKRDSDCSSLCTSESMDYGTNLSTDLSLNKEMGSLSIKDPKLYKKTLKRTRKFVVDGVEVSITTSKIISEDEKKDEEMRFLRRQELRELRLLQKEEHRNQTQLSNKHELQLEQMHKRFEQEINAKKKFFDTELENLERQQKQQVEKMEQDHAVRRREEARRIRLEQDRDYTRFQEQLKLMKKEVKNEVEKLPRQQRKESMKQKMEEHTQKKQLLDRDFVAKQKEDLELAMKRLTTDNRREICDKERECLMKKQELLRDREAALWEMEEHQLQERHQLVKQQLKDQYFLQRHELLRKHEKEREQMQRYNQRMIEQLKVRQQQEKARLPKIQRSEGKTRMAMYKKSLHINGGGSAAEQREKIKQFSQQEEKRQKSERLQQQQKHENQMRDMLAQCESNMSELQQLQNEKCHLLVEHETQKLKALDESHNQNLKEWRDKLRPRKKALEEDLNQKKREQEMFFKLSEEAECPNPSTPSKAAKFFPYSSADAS

Measured: inhibition

Chain of 1-phosphatidylinositol 3-phosphate 5-kinase (Homo sapiens) (Q9Y2I7 whole entry): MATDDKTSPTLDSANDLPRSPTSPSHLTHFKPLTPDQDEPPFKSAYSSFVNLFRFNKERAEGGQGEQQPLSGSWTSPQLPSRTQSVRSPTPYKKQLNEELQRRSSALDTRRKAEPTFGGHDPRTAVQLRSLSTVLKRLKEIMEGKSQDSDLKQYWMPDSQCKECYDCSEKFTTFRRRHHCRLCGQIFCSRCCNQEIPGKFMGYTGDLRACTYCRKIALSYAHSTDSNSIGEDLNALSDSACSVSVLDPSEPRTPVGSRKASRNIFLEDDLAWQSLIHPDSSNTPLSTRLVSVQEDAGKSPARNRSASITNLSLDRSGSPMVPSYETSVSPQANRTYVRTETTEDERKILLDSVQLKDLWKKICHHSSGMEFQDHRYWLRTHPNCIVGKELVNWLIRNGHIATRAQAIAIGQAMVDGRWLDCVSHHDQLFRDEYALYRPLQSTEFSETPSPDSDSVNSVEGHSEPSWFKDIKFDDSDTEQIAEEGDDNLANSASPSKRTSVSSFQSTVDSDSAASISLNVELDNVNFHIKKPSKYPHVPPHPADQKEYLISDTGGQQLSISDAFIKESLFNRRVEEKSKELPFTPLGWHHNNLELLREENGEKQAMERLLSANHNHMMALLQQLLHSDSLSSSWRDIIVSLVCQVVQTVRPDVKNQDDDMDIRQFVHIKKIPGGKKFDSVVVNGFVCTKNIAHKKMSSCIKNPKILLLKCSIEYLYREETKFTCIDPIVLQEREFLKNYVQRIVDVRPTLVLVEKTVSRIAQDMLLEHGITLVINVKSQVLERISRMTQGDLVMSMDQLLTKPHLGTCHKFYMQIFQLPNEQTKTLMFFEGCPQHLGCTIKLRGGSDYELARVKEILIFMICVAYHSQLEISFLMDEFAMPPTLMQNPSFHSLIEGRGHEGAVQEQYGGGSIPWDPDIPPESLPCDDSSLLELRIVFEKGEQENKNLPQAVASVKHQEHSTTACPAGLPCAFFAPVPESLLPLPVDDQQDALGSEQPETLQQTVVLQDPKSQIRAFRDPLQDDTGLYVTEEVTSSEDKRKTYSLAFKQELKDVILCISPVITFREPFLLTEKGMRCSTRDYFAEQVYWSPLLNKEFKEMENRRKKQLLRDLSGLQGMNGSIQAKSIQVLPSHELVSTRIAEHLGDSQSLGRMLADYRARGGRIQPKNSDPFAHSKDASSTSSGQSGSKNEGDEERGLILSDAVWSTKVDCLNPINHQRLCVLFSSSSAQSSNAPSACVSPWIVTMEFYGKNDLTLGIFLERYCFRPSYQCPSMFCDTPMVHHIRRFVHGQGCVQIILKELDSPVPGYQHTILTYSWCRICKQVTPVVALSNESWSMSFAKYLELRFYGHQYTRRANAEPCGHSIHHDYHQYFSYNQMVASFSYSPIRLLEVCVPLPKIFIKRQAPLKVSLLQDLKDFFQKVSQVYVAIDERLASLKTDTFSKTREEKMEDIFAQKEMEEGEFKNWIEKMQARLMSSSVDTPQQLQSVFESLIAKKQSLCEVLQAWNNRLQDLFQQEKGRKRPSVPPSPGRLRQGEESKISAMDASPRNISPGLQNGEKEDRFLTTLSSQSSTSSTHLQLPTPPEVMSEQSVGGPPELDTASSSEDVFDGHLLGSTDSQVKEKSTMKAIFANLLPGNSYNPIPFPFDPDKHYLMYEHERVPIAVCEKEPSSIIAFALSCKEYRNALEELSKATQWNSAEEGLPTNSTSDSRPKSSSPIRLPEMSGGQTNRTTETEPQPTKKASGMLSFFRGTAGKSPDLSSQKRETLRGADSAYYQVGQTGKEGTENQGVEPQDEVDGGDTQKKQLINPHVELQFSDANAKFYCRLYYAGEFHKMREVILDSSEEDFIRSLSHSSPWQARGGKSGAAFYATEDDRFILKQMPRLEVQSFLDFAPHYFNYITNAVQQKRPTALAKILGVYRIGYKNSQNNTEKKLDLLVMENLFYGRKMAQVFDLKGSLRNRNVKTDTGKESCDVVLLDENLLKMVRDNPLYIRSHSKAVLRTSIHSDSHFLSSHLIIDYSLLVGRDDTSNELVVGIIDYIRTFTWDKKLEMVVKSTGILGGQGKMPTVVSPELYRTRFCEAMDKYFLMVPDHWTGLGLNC

C[C@H]1COc2c(NCCCn3cccn3)c(F)c(N)c3c(=O)c(C(=O)O)cn1c23
< 35%: all assays above

C[C@H]1COc2c(NCCCc3ccccn3)c(F)c(N)c3c(=O)c(C#N)cn1c23
< 35%: all assays above

C[C@H]1COc2c(NCCCn3cccn3)c(F)c(N)c3c(=O)c(C#N)cn1c23
< 35%: all assays above

C[C@H]1COc2c(NCCCc3ccccn3)c(F)c(N)c3c(=O)c(C(=O)O)cn1c23
< 35%: all assays above
